From US20230301969A1, “DOSING SCHEDULE FOR A METHOD OF TREATMENT WITH DHODH INHIBITORS” (Bayer Aktiengesellschaft, priority 2020, published 2023)
Entries after “also recorded” stand apart in the source; their conditions may differ. Where two headings read alike, the source gives them in different places.

Experiments:
solid cancer = details: weekly doses or 5 days on 23 days off schedule, cited from earlier work
[1] = Body weight of animals in the HT29 xenograft model (tolerability); assay type: in vivo, mice; details: for body weight / tolerability: 5 mg/kg p.o. 5 days on/2 days off, course of the experiment
Experimental: (§1) Tumor cells were injected subcutaneously into the flank of the mice. Treatment was initiated at a predefined tumor size after cell inoculation. BAY 2402234 was applied orally (p.o.) at various dose levels and schedules (daily or intermittent). BAY 2402234 was prepared in solution in PEG400/ETOH 9/1. Animal body weight during the study was monitored at least twice weekly. Subcutaneous tumors were measured with a caliper (length and width) at least twice a week, depending on the doubling time of the tumor. Values are presented as volume. Efficacy was calculated on a specific day according to the formula: T/C (treatment/control ratio)=(mean tumor volume from the treated group/mean tumor volume from the vehicle group). Tumor volume was calculated using (width^2×length)/2.
(§2) Colorectal cancer cells were inoculated in the flank of mice and 9 days after implantation tumors were measured and animals were randomized at an average tumor volume of around 80 mm^3. Treatment with DHODH Inhibitor BAY2402234 was started at time of randomization. Either daily dosing of 5 mg/kg or 10 mg/kg at a 5 days on/2 days off schedule or 5 mg/kg at a 5 days on 2 days off was used and the drug was given orally in 90/10 PEG400/EtOH formulation. The daily dosing sums up to a total weekly dose of 35 mg/kg, while the 5 days on/2 days off schedule sums up to a 50 or a 25 mg/kg weekly dose respectively.

[2] = system: colorectal cancer xenograft model HT29; assay: Colorectal cancer HT29 subcutaneous xenograft, tumor volume; assay type: in vivo, mice; details: start day 9
Experimental: as §1, §2

[3] = system: acute myeloid leukemia xenograft model THP1; assay: AML THP1 subcutaneous xenograft, tumor volume; assay type: in vivo, SCID mice; details: start day 16, 7 days of treatment
Experimental: as §1
(§3) AML THP1 cells were inoculated in the flank of SCID mice and 16 days after implantation tumors were measured and animals were randomized at an average tumor volume of around 100 mm^3. Treatment with DHODH Inhibitor BAY2402234 was started at time of randomization. Either daily dosing of 5 mg/kg or 10 mg/kg at a 4 days on/3 days off schedule was used and the drug was given orally in 90/10 PEG400/EtOH formulation. […] The daily dosing sums up to a total weekly dose of 35 mg/kg, while the 4 days on/3 days off schedule sums up to a 40 mg/kg weekly dose.

[4] = mouse, in vivo
Experimental: as §3

[5] = system: Mantle cell lymphoma xenograft model Z138; assay: Mantle cell lymphoma Z138 subcutaneous xenograft, tumor volume; assay type: in vivo, SCID mice; details: start day 20
Experimental: as §1
Mantle Cell Lymphoma Z138 cells were inoculated in the flank of SCID mice and 20 days after implantation tumors were measured and animals were randomized at an average tumor volume of around 100 mm^3. Treatment with DHODH Inhibitor BAY 2402234 was started at time of randomization. Either daily dosing of 5 mg/kg or 10 mg/kg at a 4 days on/3 days off schedule or 5 mg/kg at a 5 days on 2 days off was used and the drug was given orally in 90/10 PEG400/EtOH formulation. The daily dosing sums up to a total weekly dose of 35 mg/kg, while the 4 days on/3 days off schedule sums up to a 40 mg/kg weekly dose and the 5 days on 2 days off sums up to 25 mg/kg weekly dose.

[6] = 5 mg/kg p.o. 5 days on/2 days off (25 mg/kg weekly)
[7] = 5 mg/kg p.o. daily (35 mg/kg weekly)
[8] = 10 mg/kg p.o. 4 days on/3 days off (40 mg/kg weekly)

SMILES	clinical activity in solid cancer indications (solid cancer)	clinical activity in solid cancer indications (solid cancer; listed as Brequinar sodium)	body weight / tolerability [1]	body weight / tolerability ([1]; listed as BAY2402234)	body weight loss ([1]; 5 mg/kg p.o. daily, at experiments end)	body weight loss ([1]; 10 mg/kg p.o. 5 days on/2 days off, at the end of the experiment)	development of tumor volume / efficacy [2, 6]	development of tumor volume / efficacy ([2]; 5 mg/kg p.o. 5 days on/2 days off (25 mg/kg weekly), listed as BAY2402234)	development of tumor volume / efficacy [2, 7]	development of tumor volume / efficacy ([2]; 5 mg/kg p.o. daily (35 mg/kg weekly), listed as BAY2402234)	development of tumor volume / efficacy ([2]; 10 mg/kg p.o. 5 days on/2 days off (50 mg/kg weekly))	development of tumor volume / efficacy ([2]; 10 mg/kg p.o. 5 days on/2 days off (50 mg/kg weekly), listed as BAY2402234)	development of tumor volume / efficacy [3, 7]	development of tumor volume / efficacy [3, 8]	dose relative to maximal tolerated dose [4]	development of tumor volume / efficacy [5, 6]	development of tumor volume / efficacy [5, 7]	development of tumor volume / efficacy [5, 8]
Cc1c(-c2ccc(-c3ccccc3F)cc2)nc2ccc(F)cc2c1C(=O)O [Brequinar, 6-fluoro-2-(2′-fluoro-[1,1′-biphenyl]-4-yl)-3-methylquinoline-4-carboxylic acid]	failed to show sufficient clinical activity	ineffective																
CCn1c(CO)nn(-c2cc(O[C@@H](C)C(F)(F)F)c(C(=O)Nc3c(F)cccc3Cl)cc2F)c1=O [BAY 2402234, N-(2-chloro-6-fluorophenyl)-4-[4-ethyl-3-(hydroxymethyl)-5-oxo-4,5-dihydro-1H-1,2,4-triazol-1-yl]-5-fluoro-2-{[(2S)-1,1,1-trifluoropropan-2-yl]oxy}benzamide]			relative constant bodyweight	best tolerated	above 10%	around 4%	tumor growth inhibition	tumor growth delay	tumor growth inhibition	tumor growth delay	tumor growth inhibition; also recorded: slightly stronger	tumor growth delay; also recorded: slightly more efficacious	stable disease	stable disease	close to the maximal tolerated dose	shrinkage of the tumors; also recorded: tumor regression	shrinkage of the tumors; also recorded: tumor regression	shrinkage of the tumors; also recorded: tumor regression
